Results on 13 compounds are retold here after paper PMC6403188, “Species-Specific Structural Requirements of Alpha-Branched Trehalose Diester Mincle Agonists” (Frontiers in Immunology, 2019).

For one data set, the target named is T1, mouse Mincle (Mus musculus, UniProt Q9R0Q8).
T1 construct: host or cells: HEK (HEK-Blue) cells with NF-κB-driven SEAP reporter
T1 sequence (Q9R0Q8 1-214): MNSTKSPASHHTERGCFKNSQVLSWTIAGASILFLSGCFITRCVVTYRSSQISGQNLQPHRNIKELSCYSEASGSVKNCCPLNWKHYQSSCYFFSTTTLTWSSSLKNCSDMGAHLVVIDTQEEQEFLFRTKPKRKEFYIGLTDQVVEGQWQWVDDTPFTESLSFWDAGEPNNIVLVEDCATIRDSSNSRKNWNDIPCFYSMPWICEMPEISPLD
In words: HEK cells expressing mouse Mincle with NF-κB-driven SEAP reporter. Particulars: for EC50: average calculated EC50, n = 3, read-out: mMincle EC50 (converted); for EC50 / SEAP induction / activation of mouse Mincle-expressing HEK cells (in words): plate-coated compound, 24 h; for Relative activity in mouse vs. human Mincle HEK cells: comparison of mouse and human Mincle receptor transfected HEK cells. The class given is cell-based. The procedure:
(§1) Human and mouse Mincle expressing HEK cells were obtained from Invivogen (San Diego, CA). Cells were cultured according to the manufactures instructions in DMEM with 10% FBS, 50 U/ml penicillin, […] streptomycin, […] Normocin, 2 mM L-glutamine, 30 μg/ml blasticidin, 1 μg/ml puromycin and 1x HEK-Blue™ CLR Selection. For assay, indicated compounds were serially diluted in diluent (50%IPA/50% isooctane), 20 μl of a 10x final concentration were applied to the bottom of a 96-well tissue culture plate and the solvent was evaporated for >1 h in a biosafety hood. HEK cells were applied to the plates at a density of 3 × 10^5 cells/well and incubated for 18–24 h at 37°C. Cell supernatants were harvested and analyzed via the manufacturer's instructions using Hek-Blue^TM Detection. SEAP activity was assessed by reading the optical density (OD) at 620–655 nm with a microplate reader; data are expressed as the fold change in OD over vehicle treated cells.
(§2) To investigate the capacity of these molecules to bind to and activate the Mincle receptor, we used human embryonic kidney (HEK) cells expressing the human or mouse Mincle receptor along with an NF-κB-driven secreted embryonic alkaline phosphatase (SEAP) reporter. Many of the αTDE compounds were able to induce production of SEAP in a dose dependent manner (Figure 2). HEK null cells (HEK cells containing the NF-kB reporter without Mincle receptor) were used as a negative controls to confirm the receptor specificity of the compounds in HEK cells expressing human or mouse Mincle reporter (Supplemental Figure 4). […] The relative activity of TDM and TDB in the human and mouse HEK cells is consistent with the results reported by others ([20]). […] This synthetic version is a shorter chain version of the lipid-derived one reported to be “human-specific” ([28]).
(§3) Figure 2 Activation of human or mouse Mincle in response to synthetic αTDE compounds. The indicated compounds were dissolved in 50% isopropanol/isooctane, serially diluted in vehicle and then dried to the bottom of a tissue culture plate. HEK cells transfected with human (A–C) or mouse (D–F) Mincle and an NF-κB-driven SEAP reporter were incubated with the compounds for 24 h followed by assessment of the supernatants for SEAP levels. Data are represented as fold change in OD650 over vehicle treated cells. Graphs are mean values from three independent experiments ± SEM. Table in (G) represents the average calculated EC50 and average max SEAP value (± SD, n = 3) for each compound in each cell line. […]

The subject of data set [1] is Hek Blue human or mouse Mincle-expressing cells. The class given is cell-based. The settings on record: top concentrations, 24 h; compared with vehicle only-treated cells.
A further data set addresses T2, human Mincle (Homo sapiens, UniProt Q9ULY5).
T2 construct: host or cells: HEK (HEK-Blue) cells with NF-κB-driven SEAP reporter
T2 sequence (Q9ULY5 1-219): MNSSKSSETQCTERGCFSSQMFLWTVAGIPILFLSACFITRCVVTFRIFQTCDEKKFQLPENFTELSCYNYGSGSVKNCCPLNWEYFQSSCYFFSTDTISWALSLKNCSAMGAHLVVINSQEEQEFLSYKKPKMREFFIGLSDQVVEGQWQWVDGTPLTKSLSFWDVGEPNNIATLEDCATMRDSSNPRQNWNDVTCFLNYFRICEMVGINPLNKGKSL
In words: HEK cells expressing human Mincle with NF-κB-driven SEAP reporter. The class given is cell-based. Particulars: plate-coated compound, 24 h; for EC50: average calculated EC50, n = 3, read-out: hMincle EC50 (converted). The procedure: as §1, §2, §3

For the next data set, the system named is THP-1 cells. In words: TNFα production from THP-1 cells (ELISA). The class given is cell-based, human. The settings on record: plate-coated compound, 24 h. The procedure: Supernatants were harvested from treated cells following 18–24 h of incubation. Supernatants were analyzed using a DuoSet TNFα ELISA (R&D Systems, Minneapolis, MN) or Luminex multiplex panel for analytes TNFα, IL-1β, IL-6, IFNγ, IL-12p70, and IL-23 (R&D Systems) per the manufacturer's instructions. Multiplex analysis was performed using a Luminex 200 instrument (Luminex Corporation) and analyzed with StarStation2.3 software. ELISAs were read on a plate reader at 450 nm and cytokine concentration was calculated by fitting the standard curve OD values to a 4-parameter logistical model using curve fitting software (XLfit, IDBS, Alameda, CA).
Next, investigation into activity of the alpha-branched TDE compounds was extended to include both human and murine monocytic cell lines, THP-1 and RAW264.7, respectively. These cell lines have previously been reported as responsive to the Mincle receptor agonists TDM and TDB ([30], [31]).
Figure 3 TNFα production from human THP-1 cells in response to stimulation with synthetic αTDE compounds. The indicated compounds were dissolved in 50% isopropanol/isooctane, serially diluted in vehicle and then dried to the bottom of a tissue culture plate. THP-1 cells were applied to the compound-coated plates and incubated at 37°C; supernatant was harvested 24 h later and analyzed for TNFα via ELISA (A-E). Results from the 200 μg/ml concentration vs. each compounds acyl chain length are shown in (F). Data points are average of at least two independent experiments ± SD.
In general terms: An ELISA detects its analyte on a solid surface through an enzyme-linked reagent.

For orientation: EC50 means the midpoint of the concentration-response curve.

With `CCCCCC(CCCCC)C(=O)OC[C@H]1O[C@H](O[C@H]2O[C@H](COC(=O)C(CCCCC)CCCCC)[C@@H](O)[C@H](O)[C@H]2O)[C@H](O)[C@@H](O)[C@@H]1O` [Compound B12], on mouse Mincle, the EC50 was 1260 nM. In addition, the “Cell viability of Mincle HEK cells” value in data set [1] is “marked decreases in viability”.
On to `CCCCCCC(CCCCCC)C(=O)OC[C@H]1O[C@H](O[C@H]2O[C@H](COC(=O)C(CCCCCC)CCCCCC)[C@@H](O)[C@H](O)[C@H]2O)[C@H](O)[C@@H](O)[C@@H]1O` [Compound B14], for which the EC50 at mouse Mincle is 1520 nM. Moreover, in data set [1], the “Cell viability of Mincle HEK cells” value is recorded as “less substantial decreases”.
As for `CCCCCCCCC(CCCCCCCC)C(=O)OC[C@H]1O[C@H](O[C@H]2O[C@H](COC(=O)C(CCCCCCCC)CCCCCCCC)[C@@H](O)[C@H](O)[C@H]2O)[C@H](O)[C@@H](O)[C@@H]1O` [Compound B18], the concentration giving a half-maximal response (EC50) on mouse Mincle is 599 nM; on human Mincle it was 405 nM. In addition, the “Cell viability of Mincle HEK cells” value in data set [1] is on record as “less substantial decreases”.
The matching figures for `CCCCCCCCCC(CCCCCCCCC)C(=O)OC[C@H]1O[C@H](O[C@H]2O[C@H](COC(=O)C(CCCCCCCCC)CCCCCCCCC)[C@@H](O)[C@H](O)[C@H]2O)[C@H](O)[C@@H](O)[C@@H]1O` [Compound B20]: 328 nM, 128 nM and “less substantial decreases”.
On to `CCCCCCCCCCC(CCCCCCCCCC)C(=O)OC[C@H]1O[C@H](O[C@H]2O[C@H](COC(=O)C(CCCCCCCCCC)CCCCCCCCCC)[C@@H](O)[C@H](O)[C@H]2O)[C@H](O)[C@@H](O)[C@@H]1O` [Compound B22], for which the concentration for a half-maximal effect (EC50) at mouse Mincle was 689 nM; on human Mincle it was 322 nM. Also, the “Cell viability of Mincle HEK cells” value in data set [1] is listed as “less substantial decreases”.
Regarding `CCCCCCCCCCCC(CCCCCCCCCCC)C(=O)OC[C@H]1O[C@H](O[C@H]2O[C@H](COC(=O)C(CCCCCCCCCCC)CCCCCCCCCCC)[C@@H](O)[C@H](O)[C@H]2O)[C@H](O)[C@@H](O)[C@@H]1O` [Compound B24], the figures for the EC50 at mouse Mincle and on human Mincle were 608 nM and 92.6 nM, respectively. Also, the “Cell viability of Mincle HEK cells” value in data set [1] was “less substantial decreases”.
As to `CCCCCCCCCCCCC(CCCCCCCCCCCC)C(=O)OC[C@H]1O[C@H](O[C@H]2O[C@H](COC(=O)C(CCCCCCCCCCCC)CCCCCCCCCCCC)[C@@H](O)[C@H](O)[C@H]2O)[C@H](O)[C@@H](O)[C@@H]1O` [Compound B26], the figures for the EC50 on mouse Mincle and at human Mincle were 907 nM and 263 nM, respectively. Further, the “TNFα induction from THP-1 cells (in words)” value (from here on “TNFα induction”) in the data set with THP-1 cells is reported as “roughly equivalent levels of TNFα as B14/B16”.
Turning to `CCCCCCCCCCCCCC(CCCCCCCCCCCCC)C(=O)OC[C@H]1O[C@H](O[C@H]2O[C@H](COC(=O)C(CCCCCCCCCCCCC)CCCCCCCCCCCCC)[C@@H](O)[C@H](O)[C@H]2O)[C@H](O)[C@@H](O)[C@@H]1O` [Compound B28], the EC50 at mouse Mincle is 592 nM; on human Mincle it was 77.4 nM.
Turning to `CCCCCCCCCCCCCCC(CCCCCCCCCCCCCC)C(=O)OC[C@H]1O[C@H](O[C@H]2O[C@H](COC(=O)C(CCCCCCCCCCCCCC)CCCCCCCCCCCCCC)[C@@H](O)[C@H](O)[C@H]2O)[C@H](O)[C@@H](O)[C@@H]1O` [Compound B30], the EC50 at mouse Mincle is 955 nM; at human Mincle, 43.8 nM.
`CCCCCCCCCCCCCCCC(CCCCCCCCCCCCCCC)C(=O)OC[C@H]1O[C@H](O[C@H]2O[C@H](COC(=O)C(CCCCCCCCCCCCCCC)CCCCCCCCCCCCCCC)[C@@H](O)[C@H](O)[C@H]2O)[C@H](O)[C@@H](O)[C@@H]1O` [Compound B32]: the EC50 on mouse Mincle is 64.4 nM; at human Mincle, 50.2 nM.
On to `CCCCCCCCCCCCCCCCCC(CCCCCCCCCCCCCCCCC)C(=O)OC[C@H]1O[C@H](O[C@H]2O[C@H](COC(=O)C(CCCCCCCCCCCCCCCCC)CCCCCCCCCCCCCCCCC)[C@@H](O)[C@H](O)[C@H]2O)[C@H](O)[C@@H](O)[C@@H]1O` [Compound B36], for which the figures for the EC50 at mouse Mincle and at human Mincle were 25800 nM and 21400 nM, respectively.
Turning to `CCCCCCCCCCCCCCCC(O)C(CCCCCCCCCCCCCC)C(=O)OCC(O)CO` (centres unmarked) [MMG, synthetic glycerol monomycolate, reference compound], at mouse Mincle, the “Relative activity in mouse vs. human Mincle HEK cells” value is listed as “more potent in mouse Mincle HEK cells” and the “SEAP induction / activation of mouse Mincle-expressing HEK cells (in words)” value is “able to activate”. For the same compound, the “SEAP induction / activation of human Mincle-expressing HEK cells (in words)” value at human Mincle was “able to activate”. In addition, the “TNFα induction” value in the data set on THP-1 cells was “potent, robust induction of TNFα”.
As for `CCCCCCCCCCCCCCCC(O)C(CCCCCCCCCCCCCC)C(=O)OC[C@H]1O[C@H](O[C@H]2O[C@H](COC(=O)C(CCCCCCCCCCCCCC)C(O)CCCCCCCCCCCCCCC)[C@@H](O)[C@H](O)[C@H]2O)[C@H](O)[C@@H](O)[C@@H]1O` (some centres unmarked) [sTDCM, synthetic trehalose dicorynomycolate, reference compound], at mouse Mincle, the “Relative activity in mouse vs. human Mincle HEK cells” value is “more potent in the mouse vs. the human” and the “SEAP induction / activation of mouse Mincle-expressing HEK cells (in words)” value is “robust ability to activate”. In addition, the “SEAP induction / activation of human Mincle-expressing HEK cells (in words)” value at human Mincle is on record as “robust ability to activate”. Further, the “TNFα induction” value with THP-1 cells is reported as “potent, robust induction of TNFα”.
